Assay results: PMC6270601, “Dimeric Labdane Diterpenes: Synthesis and Antiproliferative Effects” (Molecules, 2013)

Experiments:
MRC-5 normal fibroblasts = assay: Antiproliferative assay (MTT reduction), MRC-5 normal lung fibroblasts; format: cell-based, human; details: for IC50: Homo sapiens, MRC5, 72 h, MRC-5 normal fibroblasts, 3 days treatment, MTT reduction, mean ± SD, >100 µM considered inactive; for antiproliferative activity against MRC-5 (in words): up to 100 µM
Procedure: (§1) All human cell lines used in this work were purchased from the American Type Culture Collection (ATCC, Manasas, VA, USA). […] Promyelocytic leukemia HL-60 cells (CCL-240) were grown in suspension in RPM1 medium containing 1 mM sodium pyruvate and 2.0 g/L sodium bicarbonate. All media were supplemented with 10% heat-inactivated FBS, 100 IU/mL penicillin and 100 µg/mL streptomycin. Cells were grown in a humidified incubator with 5% CO2 in air at 37 °C. For the antiproliferative assay, adherent cells were plated at a density of 5 × 10^4 cells/mL and HL-60 cells at 30 × 10^4 cells/mL. Cells were seeded in 96-well plates (100 µL/well). One day after seeding, cells were treated with medium containing the compounds at concentrations ranging from 0 up to 100 µM during 3 days. The compounds were dissolved in DMSO (1% final concentration) and complete medium. Untreated cells (medium containing 1% DMSO) were used as 100% viability controls. […] Each concentration was tested in sextuplicate and experiments were repeated 2 times. Cell viability was determined by means of the MTT reduction assay at the end of the incubation with the products.

HL-60 cells = assay: Antiproliferative assay (MTT reduction), HL-60 promyelocytic leukemia cells; format: cell-based, human; details: for IC50: Homo sapiens, 72 h, HL-60 promyelocytic leukemia, 3 days treatment, MTT reduction, mean ± SD, >100 µM considered inactive; for antiproliferative activity against HL-60 (in words): up to 100 µM
Procedure: as §1

AGS cells = assay: Antiproliferative assay (MTT reduction), AGS gastric adenocarcinoma cells; format: cell-based, human; details: for IC50: Homo sapiens, 72 h, AGS gastric adenocarcinoma, 3 days treatment, MTT reduction, mean ± SD, >100 µM considered inactive; for antiproliferative activity against AGS (in words): up to 100 µM
Procedure: (§2) The compounds 1–20 were assessed for antiproliferative effect towards human lung fibroblasts (MRC-5) and the following human tumor cell lines: gastric adenocarcinoma (AGS), lung cancer cells (SK-MES-1), bladder carcinoma (J82) and promyelocytic leukemia (HL-60).
(§3) All human cell lines used in this work were purchased from the American Type Culture Collection (ATCC, Manasas, VA, USA). Normal lung MRC-5 fibroblasts (CCL-171), SK-MES-1 lung cancer cells (HTB-58) and J82 bladder carcinoma cells (HTB-1) were grown as monolayers in minimum essential Eagle medium (MEM) with Earles’s salts, 2 mM L-glutamine and 1.5 g/L sodium bicarbonate. Gastric adenocarcinoma AGS cells (CRL-1739) were grown as monolayers in Ham F-12 medium containing 1 mM L-glutamine and 1.5 g/L sodium bicarbonate. Promyelocytic leukemia HL-60 cells (CCL-240) were grown in suspension in RPM1 medium containing 1 mM sodium pyruvate and 2.0 g/L sodium bicarbonate. All media were supplemented with 10% heat-inactivated FBS, 100 IU/mL penicillin and 100 µg/mL streptomycin. Cells were grown in a humidified incubator with 5% CO2 in air at 37 °C. For the antiproliferative assay, adherent cells were plated at a density of 5 × 10^4 cells/mL and HL-60 cells at 30 × 10^4 cells/mL. Cells were seeded in 96-well plates (100 µL/well). One day after seeding, cells were treated with medium containing the compounds at concentrations ranging from 0 up to 100 µM during 3 days. The compounds were dissolved in DMSO (1% final concentration) and complete medium. Untreated cells (medium containing 1% DMSO) were used as 100% viability controls. […] Each concentration was tested in sextuplicate and experiments were repeated 2 times. Cell viability was determined by means of the MTT reduction assay at the end of the incubation with the products. The results were transformed to percentage of controls and the IC50 values were graphically obtained from the dose-response curves.

[1] = system: SK-MES-1 lung cancer cells; assay: Antiproliferative assay (MTT reduction), SK-MES-1 lung cancer cells; format: cell-based, human; details: for IC50: Homo sapiens, 72 h, SK-MES-1 lung cancer cells, 3 days treatment, MTT reduction, mean ± SD, >100 µM considered inactive; for antiproliferative activity against SK-MES-1 (in words): up to 100 µM
Procedure: as §1

[2] = system: J82 bladder carcinoma cells; assay: Antiproliferative assay (MTT reduction), J82 bladder carcinoma cells; format: cell-based, human; details: for IC50: Homo sapiens, 72 h, J82 bladder carcinoma, 3 days treatment, MTT reduction, mean ± SD, >100 µM considered inactive; for antiproliferative activity against J82 (in words): up to 100 µM
Procedure: as §1

[3] = system: MRC-5, AGS, SK-MES-1, J82 and HL-60 cell lines; assay: Antiproliferative assay, panel of five human cell lines (summary in words); format: cell-based; details: SK-MES-1, J82, HL-60, up to 100 µM
Procedure: as §2, §3

IC50 (HL-60 cells) [µM]	IC50 (AGS cells) [µM]	IC50 [1] [µM]	IC50 [2] [µM]	Structure (SMILES)	IC50 (MRC-5 normal fibroblasts) [µM]	antiproliferative activity against MRC-5 (in words) (MRC-5 normal fibroblasts)	antiproliferative activity against HL-60 (in words) (HL-60 cells)	antiproliferative activity against AGS (in words) (AGS cells)	antiproliferative activity against SK-MES-1 (in words) [1]	antiproliferative activity against J82 (in words) [2]	antiproliferative effect on the five cell lines (in words) [3]
44.1 ± 4.1	39.4 ± 2.4	56 ± 4.5	84.7 ± 6.8	C=C1CCC2[C@](C)(CCC[C@]2(C)C(=O)O)[C@H]1CC[C@@H](C)CC(=O)OCc1cn(CC[C@H](C)CC[C@H]2C(=C)CCC3[C@]2(C)CCC[C@]3(C)C(=O)OC)nn1 (some centres unmarked) [Compound 15]	> 100	–	–	–	–	–	–
32.6 ± 2.3	17.8 ± 1.3	67.5 ± 6.9	> 100	C=C1CCC2[C@](C)(CCC[C@]2(C)C(=O)OC)[C@H]1CC[C@@H](C)CCOCCCCCOCC[C@H](C)CC[C@H]1C(=C)CCC2[C@]1(C)CCC[C@]2(C)C(=O)OC (some centres unmarked) [Compound 9]	68.1 ± 3.4	–	–	–	–	–	–
60.8 ± 4.2	62.9 ± 3.9	68.2 ± 4.5	72.1 ± 4.3	C=C1CCC2[C@](C)(CCC[C@]2(C)C(=O)OC)[C@H]1CC[C@@H](C)CCOC(=O)CCC(=O)OCC[C@H](C)CC[C@H]1C(=C)CCC2[C@]1(C)CCC[C@]2(C)C(=O)OC (some centres unmarked) [Compound 13]	76.8 ± 5.4	–	–	–	–	–	–
80.3 ± 5.9	26.1 ± 2.2	> 100	> 100	C=C1CCC2[C@](C)(CCC[C@]2(C)C(=O)O)[C@H]1CC[C@@H](C)CC(=O)OCC[C@H](C)CC[C@H]1C(=C)CCC2[C@]1(C)CCC[C@]2(C)C(=O)OC (some centres unmarked) [Compound 11]	71.2 ± 5.3	showed activity	showed activity	showed activity	not against SK-MES-1 and J82 cells	not against SK-MES-1 and J82 cells	–
42.4 ± 2.5	> 100	> 100	> 100	C=C1CCC2[C@](C)(CCC[C@]2(C)C(=O)O)[C@H]1CC[C@@H](C)CCOC(=O)CCc1cn(CC[C@H](C)CC[C@H]2C(=C)CCC3[C@]2(C)CCC[C@]3(C)C(=O)OC)nn1 (some centres unmarked) [Compound 19]	> 100	–	–	–	–	–	no antiproliferative effect on any of the cell lines, except on HL-60
> 100	> 100	38.5 ± 2.8	61.4 ± 3.1	C=C1CCC2[C@](C)(CCC[C@]2(C)C(=O)OC)[C@H]1CC[C@@H](C)CCOC(=O)C[C@H](C)CC[C@H]1C(=C)CCC2[C@]1(C)CCC[C@]2(C)C(=O)OC (some centres unmarked) [Compound 12]	> 100	devoid of activity	devoid of activity	devoid of activity	showed effect	showed effect	–
57.8 ± 4.1	70.3 ± 6.3	> 100	> 100	C=C1CCC2[C@](C)(CCC[C@]2(C)C(=O)OC)[C@H]1CC[C@@H](C)CCOCCCCOCC[C@H](C)CC[C@H]1C(=C)CCC2[C@]1(C)CCC[C@]2(C)C(=O)OC (some centres unmarked) [Compound 8]	> 100	–	–	–	–	–	–
> 100	> 100	> 100	> 100	C=C1CCC2[C@](C)(CCC[C@]2(C)C(=O)OC)[C@H]1CC[C@@H](C)CCn1cc(CCC(=O)OCC[C@H](C)CC[C@H]2C(=C)CCC3[C@]2(C)CCC[C@]3(C)C(=O)OC)nn1 (some centres unmarked) [Compound 20]	> 100	–	–	–	–	–	no antiproliferative effect on any of the cell lines
> 100	> 100	> 100	> 100	C=C1CCC2[C@](C)(CCC[C@]2(C)C(=O)O)[C@H]1CC[C@@H](C)CC(=O)O (some centres unmarked) [Compound 2, Labd-8(17)-en-15,19-dioic acid]	> 100	–	–	–	–	–	no antiproliferative effect on any of the cell lines
55.6 ± 3.9	51.7 ± 2.8	> 100	> 100	C=C1CCC2[C@](C)(CCC[C@]2(C)C(=O)OC)[C@H]1CC[C@@H](C)CCOC(=O)c1ccccc1C(=O)OCC[C@H](C)CC[C@H]1C(=C)CCC2[C@]1(C)CCC[C@]2(C)C(=O)OC (some centres unmarked) [Compound 14]	76.3 ± 5.8	–	–	–	–	–	–
47.5 ± 3.9	38.5 ± 1.6	59.7 ± 2.4	63.7 ± 2.6	C=C1CCC2[C@](C)(CCC[C@]2(C)C(=O)OC)[C@H]1CC[C@@H](C)CCO (some centres unmarked) [Compound 1, 15-Hydroxyimbricatolic acid methyl ester]	77.7 ± 4	–	–	–	–	–	–
> 100	> 100	> 100	> 100	C=C1CCC2[C@](C)(CCC[C@]2(C)C(=O)OC)[C@H]1CC[C@@H](C)CCn1cc(COC(=O)C[C@H](C)CC[C@H]2C(=C)CCC3[C@]2(C)CCC[C@]3(C)C(=O)OC)nn1 (some centres unmarked) [Compound 16]	> 100	–	–	–	–	–	–
48.9 ± 4.5	54.8 ± 3.3	57.2 ± 3.4	56.2 ± 3.9	C=C1CCC2[C@](C)(CCC[C@]2(C)C(=O)OC)[C@H]1CC[C@@H](C)CCn1cc(CCO)nn1 (some centres unmarked) [Compound 5, 15-(4-(2-Hydroxyethyl)-1H-1,2,3-triazol-1-yl)-imbricatolic acid methyl ester]	75.8 ± 5.3	–	–	–	–	–	–
22.3 ± 3.1	73.8 ± 5.2	67.6 ± 3.4	> 100	C=C1CCC2[C@](C)(CCC[C@]2(C)C(=O)OC)[C@H]1CC[C@@H](C)CCN=[N+]=[N-] (some centres unmarked) [Compound 3, 15-Azidoimbricatolic acid methyl ester]	91.8 ± 6.4	–	–	–	–	–	–
> 100	41.5 ± 2.1	67.7 ± 3.1	60.7 ± 4.6	C=C1CCC2[C@](C)(CCC[C@]2(C)C(=O)OC)[C@H]1CC[C@@H](C)CCn1cc(CO)nn1 (some centres unmarked) [Compound 4, 15-(4-(Hydroxymethyl)-1H-1,2,3-triazol-1-yl)-imbricatolic acid methyl ester]	77.4 ± 3.9	–	–	–	–	–	–
–	0.58 ± 0.02	–	–	COc1cc([C@@H]2c3cc4c(cc3[C@@H](O[C@@H]3O[C@@H]5CO[C@@H](C)O[C@H]5[C@H](O)[C@H]3O)[C@H]3COC(=O)[C@H]23)OCO4)cc(OC)c1O [Etoposide, reference compound]	–	–	–	–	–	–	–
> 100	> 100	> 100	> 100	C=C1CCC2[C@](C)(CCC[C@]2(C)C(=O)OC)[C@H]1CC[C@@H](C)CCn1cc(CCOC(=O)C[C@H](C)CC[C@H]2C(=C)CCC3[C@]2(C)CCC[C@]3(C)C(=O)OC)nn1 (some centres unmarked) [Compound 18]	> 100	–	–	–	–	–	–
> 100	> 100	67.9 ± 5.4	> 100	C=C1CCC2[C@](C)(CCC[C@]2(C)C(=O)OC)[C@H]1CC[C@@H](C)CCOCCCCCCCCCOCC[C@H](C)CC[C@H]1C(=C)CCC2[C@]1(C)CCC[C@]2(C)C(=O)OC (some centres unmarked) [Compound 10]	> 100	–	–	–	–	–	–
23.2 ± 3.1	23.4 ± 1.4	67.5 ± 4.9	34.6 ± 2.5	C=C1CCC2[C@](C)(CCC[C@]2(C)C(=O)O)[C@H]1CC[C@@H](C)CC(=O)OCCc1cn(CC[C@H](C)CC[C@H]2C(=C)CCC3[C@]2(C)CCC[C@]3(C)C(=O)OC)nn1 (some centres unmarked) [Compound 17]	79.6 ± 5.1	–	–	–	–	–	–
